From patent US12625427B2, “Naphthalimide sulfonate derivative, and photoacid generator and photoresist composition each comprising same” (SAMYANG CORPORATION, priority 2020, dated 2026)

What was measured:
[1] = Measurement of solubility of photoacid generators in photoresist solvents; assay type: physicochemical; details: for Solubility (w/v %) PGMEA: solvent PGMEA; for Solubility (w/v %) Cyclohexane: solvent cyclohexane
From the text: In preparing a photoresist composition, solubility of a photoacid generator is very important.

[2] = Measurement of thermal stability by thermogravimetric analyzer; assay type: physicochemical
From the text: If a photoacid generator is thermally stable in a photoresist preparation process, a very good effect in terms of stability can be expected.

Row | Solubility (w/v %) PGMEA [1] [w/v %] | Solubility (w/v %) Cyclohexane [1] [w/v %] | Temperature at which 5% weight loss occurred [2] [°C] | SMILES
1 | 50.0 | 62.3 | 232 | CCCCOC(CCC)c1ccc2c3c(cccc13)C(=O)N(OS(=O)(=O)C(F)(F)F)C2=O (stereo not shown) [Compound 8]
2 |  |  | 230 | CCCC(OC)c1ccc2c3c(cccc13)C(=O)N(OS(=O)(=O)C(F)(F)F)C2=O (stereo not shown) [Compound 11]
3 | 60.0 | 64.1 | 234 | CCCC(OCCOC)c1ccc2c3c(cccc13)C(=O)N(OS(=O)(=O)C(F)(F)F)C2=O (stereo not shown) [Compound 19]
4 | 45.0 | 54.1 | 235 | CCCCOCCOC(CCC)c1ccc2c3c(cccc13)C(=O)N(OS(=O)(=O)C(F)(F)F)C2=O (stereo not shown) [Compound 20]
5 | 1.7 | 5.8 | 223 | O=C1c2cccc3cccc(c23)C(=O)N1OS(=O)(=O)C(F)(F)F [Formula II, reference compound]
